Test results reported in patent US20230234993A1, “COMPOSITION FOR PREVENTING OR TREATING NEUROLOGICAL DISEASES RELATED TO COPPER METABOLISM, COMPRISING MULTI-COPPER OXIDASE PEPTIDE” (NATIONAL MARINE BIODIVERSITY INSTITUTE OF KOREA, priority 2020, published 2023).
Where no end group is shown, it is not given here.

Tests used:
Assay type in all cases: in vivo
[1] = tested on: zebrafish embryos exposed to copper; assay: Hatching rate under copper overexposure conditions
Description: Through hatching rate examination, the activities of CP002 and CP002S were analyzed in zebrafish embryos exposed to copper. Specifically, the development process of fertilized eggs obtained by mating male and female wild-type zebrafish was safely maintained in an incubator. At 24 hours after fertilization, normally grown embryos were dispensed into a 24-well plate by 13 subjects and maintained under copper overexposure conditions. The dispensed subjects were treated with CP002 (5, 10 μM), CP002S (5, 10 μM), DPA (5, 10 μM), or TETA (5, 10 μM). From 48 hours to 52, 56, 60, 72, and 80 hours after fertilization (24 hours after treatment) when hatching started, the number of hatched subjects in each group was examined. A negative control group in the experiment was a 0.1% DMSO treated group (normal group) and a copper overexposed group (4 μM CuSO4), and a positive control group was a CP002 treated group; a DPA (penicillamine/D-Penicillamine) treated group; and a TETA (trientine/Trientine) treated group. The DPA and TETA were drugs that have been used as therapeutic agents for Wilson's disease and copper overexposure in the related art. The results of examining the hatching rate were illustrated in FIG. 9.

[2] = tested on: myelinated cells in the nervous system of zebrafish embryos under copper overexposure; assay: Myelination defect of cranial ganglia in copper overexposure nervous system model (fluorescence microscopy); settings: 6 days of drug treatment; for subjects expressing the fluorescent protein (cranial ganglia): with copper, concentration not given
Description: The development process of fertilized eggs obtained by mating male and female wild-type zebrafish was safely maintained in an incubator (28.5° C.). At 24 hours after fertilization, normally grown embryos were dispensed into a 24-well plate by 10 subjects and maintained under copper overexposure conditions. To examine the developmental defects of myelinated cells in the nervous system due to copper overexposure and a therapeutic effect of a multi-copper oxidase peptide, CP002S (10 μM) was treated. After 6 days of drug treatment, the subjects were anesthetized with tricaine and placed in 3% methylcellulose. The myelination defect of cranial ganglia (Cg) was observed through fluorescence microscopy, and fluorescent proteins were divided into a normal and a defect according to an expression level. A negative control group in the experiment was a 0.1% DMSO treated group (normal group) and a copper overexposed group, and a positive control group was a DPA (penicillamine/D-Penicillamine) treated group; and a TETA (trientine/Trientine) treated group. The results observed with a fluorescence microscope were illustrated in FIG. 10A, and the results of analyzing the therapeutic effect based on the fluorescence microscope observation results were illustrated in FIG. 10B.

[3] = tested on: wild-type zebrafish fertilized eggs; assay: Developmental toxicity analysis of multi-copper oxidase-derived peptides (number of surviving subjects, viability)
Description: The developmental toxicity of CP001 (SEQ ID NO: 3) and CP002 (SEQ ID NO: 4), which were multi-copper oxidase-derived peptides, was analyzed. Specifically, fertilized eggs were obtained by mating wild-type zebrafish. After the obtained fertilized eggs were maintained in an incubator for 24 hours, 7 subjects were dispensed into each well of a 24-well plate. The dispensed subjects were treated with CP001 and CP002 at various concentrations (10, 50, and 100 μM). After treatment with the CP001 and CP002, the number of surviving subjects at 2, 6, 22, and 36 hours was confirmed using a microscope, and the viability was calculated based on the results. The control group of the experiment was treated with 0.1% DMSO. The result of confirming the number of surviving subjects was illustrated in FIG. 5A and the calculation result of the viability was illustrated in FIG. 5B.
The experiment was performed in the same method as described above, and the treatment concentrations of CP001 and CP002 were as follows. • CP001: 1 μM, 4 μM • CP002: 5 μM, 10 μM

[4] = tested on: zebrafish embryos under copper overexposure conditions; assay: Cardiotoxicity (heart rate) in copper-overexposed nervous system model
Description: The development process of fertilized eggs obtained by mating male and female wild-type zebrafish was safely maintained in an incubator (28.5° C.). At 24 hours after fertilization, normally grown embryos were dispensed into a 24-well plate by 20 subjects and maintained under copper overexposure conditions. On 4.5 days after treatment (5.5 days after fertilization), 7 subjects per group were randomly selected, 3% methylcellulose was put in a hole slide glass, and the heart of each subject was located on the hole slide glass to be observed with the naked eye through a stereoscopic microscope lens and observed under a microscope. The heart rate was measured together with the movement of the atria and the ventricles for 20 seconds for each subject in each group to be converted to a heart rate per minute and the average heart rate for each group was compared through a PRISM (Bonfferroni's Multiple Comparison Test, One-way ANOVA) program. In addition, the heart rate inhibition rate was calculated as follows using an average heart rate of the control group. Heart rate inhibition rate=[(average heart rate by group−average heart rate in control group)×100]/average heart rate in control group […] The results of measuring the heart rate in the copper overexposed model animal were illustrated in FIG. 11A, and the heart rate inhibition rate calculated based on the heart rate measurement results was illustrated in FIG. 11B.

[5] = tested on: wild-type zebrafish embryos; assay: Abnormal blood deposition in tissue by hematological staining after ceruloplasmin mRNA injection; settings: 180 pg or 350 pg mRNA injected into embryos at 1 to 4 cell stages; 48 hours after injection; compared to normal group
Description: Specifically, the ceruloplasmin gene (SEQ ID NO: 1) derived from Octopus minor obtained in Example 1 was treated with restriction enzymes Cla 1 and Xho 1, and inserted into a pCS2+ expression vector. A restriction enzyme Sac II was treated to the pCS2+ expression vector into which the ceruloplasmin gene was inserted, to prepare linear DNA. An mRNA using the linear DNA as a template was synthesized by an in vitro transcription (Sp6, Invitrogen) method.
After obtaining fertilized eggs by mating wild-type zebrafish, embryos at 1 to 4 cell stages were arranged on an injection plate. After loading the synthesized ceruloplasmin mRNA in a microglass tube with a microloder tip, a predetermined concentration (180 pg or 350 pg) thereof was injected into the embryo using a microinjector, a picopump, and a microscope. Subjects injected with the ceruloplasmin mRNA were cultured in an incubator, and after 48 hours of injection, dark-treated with a hematological staining reagent (o-dianisidine (0.6 mg/ml), 0.01 M sodium acetate (pH 4.5), 0.65% H2O2, 40% ethanol) for 30 minutes, and then washed. After washing, a fixing solution (4% paraformaldehyde) was treated to the subject injected with the ceruloplasmin mRNA, and reacted for at least 1 hour. The subjects injected with the immobilized ceruloplasmin mRNA were placed in 80% glycerol/20% PBS, and photographed under a stereoscopic microscope. […]

[6] = 10 μM, 72 hours after fertilization
[7] = 10 μM, 80 hours after fertilization
[8] = copper overexposure, 5.5 days after fertilization, concentration not given
[9] = 5 μM, 48 hours after fertilization
[10] = 5 μM, 52 hours after fertilization
[11] = 10 μM, 48 hours after fertilization
[12] = 10 μM, 52 hours after fertilization

Compound	hatching rate [1, 6]	hatching rate [1, 7]	subjects expressing the fluorescent protein (cranial ganglia) [2]	heart rate [4, 8]	hatching rate [1, 9]	hatching rate [1, 10]	hatching rate [1, 11]	hatching rate [1, 12]	further results
CC(C)(S)[C@@H](N)C(=O)O [DPA, D-Penicillamine]	36.3%	81.8%	100%	–	–	–	–	–	hatching rate ([1]; 5 μM, 80 hours after fertilization): 45.4%
GKWLLHCHVDDHIIGGMSAIY [CP002]	–	–	–	132 beats per minute	–	–	–	–	developmental toxicity ([3]; 10 μM, surviving subjects at 2, 6, 22, 36 hours): developmental toxicity was not shown; developmental toxicity (number of surviving subjects and viability) ([3]; 5 or 10 μM): there was no developmental toxicity; developmental toxicity ([3]; 50 to 100 μM, surviving subjects at 2, 6, 22, 36 hours): developmental toxicity was confirmed; heart rate decrease compared to the normal group (heart rate inhibition rate) ([4]; zebrafish, in vivo): 7.7%
HCHVDDHIIGGM [CP002S]	–	–	–	–	10%	20%	80%	100%	hatching rate ([1]; 5 μM, 72 hours after fertilization): 100%; subjects with fluorescent protein expression in the cranial ganglia ([2]; 10 μM with copper): all subjects; heart rate ([4]; 10 μM, copper overexposure, 5.5 days after fertilization): 135 beats per minute
GSWLVKCHVHDHYVGGMETLL [CP001]	–	–	–	–	–	–	–	–	developmental toxicity ([3]; 5 μM): developmental toxicity was not confirmed; developmental toxicity (number of surviving subjects and viability) ([3]; 1 or 4 μM): there was no developmental toxicity; developmental toxicity ([3]; 10 to 100 μM, surviving subjects at 2, 6, 22, 36 hours): developmental toxicity was confirmed
ceruloplasmin mRNA: mRNA synthesized by in vitro transcription from the Octopus minor ceruloplasmin gene (SEQ ID NO: 1)	–	–	–	–	–	–	–	–	blood deposition in tissue (o-dianisidine hematological staining) [5]: abnormal blood deposition in tissue was observed
NCCNCCNCCN [TETA, Trientine]	92.3%	100%	80%	148 beats per minute	12.5%	75%	30.7%	84.6%	hatching rate ([1]; 5 μM, 56 hours after fertilization): 100%; heart rate increase compared to the control group (heart rate inhibition rate) [4, 8]: 3.5%
